Measured values: US6333338A, “Bispiperidines as antithrombotic agents” (Laboratoire L. Lafon, priority 1998, dated 2001)
Counter-ions that a name gives are not always drawn. Like-named read-outs stand apart in the source and are kept apart here.

What was measured:
[1] = test system: guinea pig platelets; experiment: In vitro inhibition of collagen-induced platelet aggregation, guinea pig platelets (PRP); assay type: cell-based, guinea pig (male Dunkin-Hartley); settings: Cavia porcellus, Platelet, 0.05 h, collagen 1 μg/ml, 3 minutes of contact at 37° C.
Summary of the method: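 Citrated PRP from male Dunkin-Hartley guinea pigs, adjusted to 200,000–400,000 platelets/mm^3, with PPP as reference. Aggregation induced by collagen (1 μg/ml) and followed by optical aggregometry; inhibition measured after 3 min compound contact at 37° C with stirring.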

[2] = test system: human platelets; experiment: In vitro inhibition of collagen-induced platelet aggregation, human platelets (PRP); assay type: cell-based; settings: 0.05 h, collagen 5 μg/ml, 3 minutes of contact at 37° C., read-out: IC50 (M) in vitro, Man
Description: A study of the inhibitory activity of the compounds of formula I on platelet aggregation was carried out in vitro, i.e. by direct contact of solutions of variable concentrations of the compounds with platelets freshly separated from a sample of total blood, taken under standardized conditions, from laboratory animals (guinea pigs) and from healthy human subjects who have not received any substances or drugs that might interfere with blood clotting. The anti-platelet-aggregating activity was also studied ex vivo/vitro, i.e. after administration of the substances claimed to guinea pigs to measure the intensity and duration of the anti-aggregating action induced by the fraction of the test product absorbed and circulating in the blood.
Venous blood is taken from a group of ten healthy human subjects of the same age, by puncture into a vein of the fold of the elbow and is collected in a glass tube containing aqueous 0.129 M sodium citrate solution (1 volume of citrate solution per 9 volumes of blood). Each tube is then centrifuged a first time at 20° C. and 100 g for 15 minutes in order to obtain the platelet-rich plasma (PRP); after removing this PRP, the tube is again centrifuged at 2000 g for 15 minutes in order this time to remove the platelet-poor plasma (PPP).
For each identified sample of PRP, the platelets are counted using a Coulter ZM counter. Each sample is then used to study the variation in inhibition of the platelet aggregation triggered by the addition of a Chromo-par Reagent collagen glucose solution from Coultronics (used at a concentration of 5 μg/ml) as a function of the addition of increasing concentrations of each compound in a range covering the interval 10^-8 M→10^-5 M, (example of concentrations: 10^-8 M, […], 6×10^-6 M, 4×10^-6 M, 2×10^-6 M, 10^-6 M, […], 10^-5 M). Beforehand, for each compound, an aqueous 10^-3 M solution is prepared. A control test intended to check the possible effect of the solvents (reference value) on the platelet aggregation is introduced into each measurement series, and is measured after 3 minutes of contact at 37° C. with agitation.
From the percentages of inhibition of the platelet aggregation measured for each concentration of each compound, the 50% inhibitory concentration (IC50) is calculated.

[3] = test system: guinea pig platelets; experiment: Ex vivo/vitro inhibition of platelet aggregation after administration via the gastric route in guinea pigs; set-up: species or system guinea pig (Dunkin-Hartley); settings: Cavia porcellus, Platelet, fasted guinea pigs
Summary of the method: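 Compounds dosed by the gastric route to Dunkin-Hartley guinea pigs, with random allocation of treatments. Blood then drawn and platelets freshly separated and tested as in the in vitro aggregation study. Inhibition measured for intensity and duration of action; IC50 derived from per-concentration inhibition.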

[4] = 1 h before blood sampling, read-out: % of g.r. inhibition guinea pig ex vivo, d = 10 mg/kg, 1 h
[5] = 2 h before blood sampling, read-out: % of g.r. inhibition guinea pig ex vivo, d = 10 mg/kg, 2 h
[6] = 1 h before blood sampling, read-out: % of g.r. inhibition guinea pig ex vivo, d = 150 mg/kg, 1 h
[7] = 2 h before blood sampling, read-out: % of g.r. inhibition guinea pig ex vivo, d = 150 mg/kg, 2 h

SMILES: O=C(CNC(=O)C(CCC1CCNCC1)CCC1CCNCC1)NCC(NS(=O)(=O)c1ccccc1)C(=O)O (centres unmarked) [Example 26, 2-[(Phenylsulphonyl)amino]-3-{[2-({4-(4-piperidyl)-2-[2-(4-piperidyl)ethyl]butanoyl}amino)acetyl]amino}propanoic Acid Dihydrochloride]
- IC50 [1]: 440 nM
- IC50 [2]: 5.3e-07 M
- inhibition at 10 mg/kg [3, 4]: -41%
- inhibition at 10 mg/kg [3, 5]: -20%
- inhibition at 150 mg/kg [3, 6]: -77%
- inhibition at 150 mg/kg [3, 7]: -68%

SMILES: Cc1cc(C)c(S(=O)(=O)NC(CNC(=O)CNC(=O)C(CCC2CCNCC2)CCC2CCNCC2)C(=O)O)c(C)c1 (centres unmarked) [Example 37, 2-[(Mesitylsulphonyl)amino]-3-{[2-({4-(4-piperidyl)-2-[2-(4-piperidyl)ethyl]butanoyl}amino)acetyl]amino}propanoic Acid Dihydrochloride]
- IC50 [1]: 140 nM
- IC50 [2]: 1.3e-07 M
- inhibition at 10 mg/kg [3, 4]: -9%
- inhibition at 10 mg/kg [3, 5]: -16%

SMILES: O=C(CNC(=O)C(CCC1CCNCC1)CCC1CCNCC1)NCC(NS(=O)(=O)c1ccc(-c2ccccc2)cc1)C(=O)O (centres unmarked) [Example 30, 2-[([1,1-Biphenyl]-4-ylsulphonyl)amino]-3-{[2-({4-(4-piperidyl)-2-[2-(4-piperidyl)ethyl]butanoyl}amino)acetyl]amino}propanoic Acid Dihydrochloride]
- IC50 [1]: 120 nM
- IC50 [2]: 1.4e-07 M
- inhibition at 10 mg/kg [3, 4]: -67%
- inhibition at 150 mg/kg [3, 7]: -72%

SMILES: COc1cccc(C(CC(=O)O)NC(=O)CNC(=O)C(CCC2CCNCC2)CCC2CCNCC2)c1 (centres unmarked) [Example 10, 3-(3-Methoxyphenyl)-3-{[2-({4-(4-piperidyl)-2-[2-(4-piperidyl)ethyl]butanoyl}amino)acetyl]amino}propanoic Acid Dihydrochloride]
- IC50 [1]: 13000 nM
- IC50 [2]: 9.2e-07 M
- inhibition at 150 mg/kg [3, 6]: -14%
- inhibition at 150 mg/kg [3, 7]: -18%

SMILES: O=C(CNC(=O)C(CCC1CCNCC1)CCC1CCNCC1)NC[C@H](NS(=O)(=O)c1cc2ccccc2s1)C(=O)O [Example 59, 2-[(1-Benzothiophen-2-ylsulphonyl)amino]-3-{[2-({4-(4-piperidyl)-2-[2-(4-piperidyl)ethyl]butanoyl}amino)acetyl]amino}propanoic Acid Dihydrochloride]
- IC50 [1]: 66 nM
- IC50 [2]: 1.5e-07 M
- inhibition at 10 mg/kg [3, 4]: -66%
- inhibition at 10 mg/kg [3, 5]: -34%

SMILES: O=C(O)CC(CCc1ccccc1)NC(=O)CNC(=O)C(CCC1CCNCC1)CCC1CCNCC1 (centres unmarked) [Example 15, 5-Phenyl-3-{[2-({4-(4-piperidyl)-2-[2-(4-piperidyl)ethyl]butanoyl}amino)acetyl]amino}pentanoic Acid Dihydrochloride]
- IC50 [1]: 4300 nM
- IC50 [2]: 1.5e-07 M
- inhibition at 150 mg/kg [3, 6]: -84%
- inhibition at 150 mg/kg [3, 7]: -26%

SMILES: O=C(CNC(=O)C(CCC1CCNCC1)CCC1CCNCC1)NCC(NS(=O)(=O)c1ccc(F)cc1)C(=O)O (centres unmarked) [Example 35, 2-{[(4-Fluorophenyl)sulphonyl]amino}-3-{[2-({4-(4-piperidyl)-2-[2-(4-piperidyl)ethyl]butanoyl}amino)acetyl]amino}propanoic Acid Dihydrochloride]
- IC50 [1]: 18 nM
- IC50 [2]: 1.3e-08 M
- inhibition at 10 mg/kg [3, 4]: -5%
- inhibition at 10 mg/kg [3, 5]: 0%

SMILES: CC(C)c1ccc(C(CC(=O)O)NC(=O)CNC(=O)C(CCC2CCNCC2)CCC2CCNCC2)cc1 (centres unmarked) [Example 6, 3-(4-Isopropylphenyl)-3-{[2-({4-(4-piperidyl)-2-[2-(4-piperidyl)ethyl]butanoyl}amino)acetyl]amino}propanoic Acid Dihydrochloride]
- IC50 [1]: 14000 nM
- IC50 [2]: 2.7e-06 M
- inhibition at 150 mg/kg [3, 6]: -9%
- inhibition at 150 mg/kg [3, 7]: -4%

SMILES: O=C(CNC(=O)C(CCC1CCNCC1)CCC1CCNCC1)NCC(NS(=O)(=O)c1cccs1)C(=O)O (centres unmarked) [Example 33, 2-[(2-Thienylsulphonyl)amino]-3-{[2-({4-(4-piperidyl)-2-[2-(4-piperidyl)ethyl]butanoyl}amino)acetyl]amino}propanoic Acid Dihydrochloride]
- IC50 [1]: 710 nM
- IC50 [2]: 4.9e-07 M
- inhibition at 10 mg/kg [3, 4]: -14%
- inhibition at 10 mg/kg [3, 5]: -5%

SMILES: O=C(CNC(=O)C(CCC1CCNCC1)CCC1CCNCC1)NCC(NS(=O)(=O)c1cccc2ccccc12)C(=O)O (centres unmarked) [Example 31, 2-[(1-Naphthylsulphonyl)amino]-3-{[2-({4-(4-piperidyl)-2-[2-(4-piperidyl)ethyl]butanoyl}amino)acetyl]amino}propanoic Acid Dihydrochloride]
- IC50 [1]: 44 nM
- IC50 [2]: 5.8e-07 M
- inhibition at 10 mg/kg [3, 4]: -81%
- inhibition at 10 mg/kg [3, 5]: -81%

SMILES: COc1ccc2cc(S(=O)(=O)N[C@@H](CNC(=O)CNC(=O)C(CCC3CCNCC3)CCC3CCNCC3)C(=O)O)ccc2c1 [Example 36, (2S)-2-{[(6-Methoxy-2-naphthyl)sulphonyl]amino}-3-{[2-({4-(4-piperidyl)-2-[2-(4-piperidyl)ethyl]butanoyl}amino)acetyl]amino}propanoic Acid Dihydrochloride]
- IC50 [1]: 41 nM
- IC50 [2]: 7.2e-08 M
- inhibition at 10 mg/kg [3, 4]: -63%
- inhibition at 10 mg/kg [3, 5]: -69%

SMILES: O=C(CCNC(=O)C(CCC1CCNCC1)CCC1CCNCC1)NCC(NS(=O)(=O)c1ccc2ccccc2c1)C(=O)O (centres unmarked) [Example 78, 2-[(2-Naphthylsulphonyl)amino]-3-{[3-({4-(4-piperidyl)-2-[2-(4-piperidyl)ethyl]butanoyl}amino)propanoyl]amino}propanoic Acid Dihydrochloride]
- IC50 [1]: 46 nM
- IC50 [2]: 1e-07 M
- inhibition at 10 mg/kg [3, 4]: -65%
- inhibition at 10 mg/kg [3, 5]: -73%
